Measurements published in patent US12336536B2, “Method for controlling herbicide resistant or tolerant weeds” (BASF Agro B.V., priority 2015, dated 2025).

How the values were obtained:
[1] = test system: BROST; experiment: Greenhouse test, solo and combination, post-emergence, 20 DAT; assay type: in vivo, Bromus sterilis
Experimental: (§1) The test plants have been seeded, separately for each species, in plastic containers in sandy loamy soil containing 5% of organic matter.
(§2) For the post-emergence treatment, the plants were first grown to the 2 leaf station (GS 12) and applied at GS 12-19 depending on the species. The herbicidal compositions were suspended or emulsified in water as distribution medium and sprayed using finely distributing nozzles.
(§3) The plants have been cultivated due to their individual requirements at 10-25° C. and 20-35° C. The plants were irrigated due to their necessity.
(§4) The racemic mixture (±)-2-exo-(2-Methylbenzyloxy)-1-methyl-4-isopropyl-7-oxabicyclo[2.2.1]heptane was used as herbicide A and formulated as emulsifiable concentrate having an active ingredient concentration of 750 g/l.
(§5) Cyhalofop-butyl (herbicide B.5) was used as an emulsifiable concentrate (EC) formulation having an active ingredient concentration of 200 g/l.
(§6) Metsulfuron-methyl (herbicide B.53) was used as a water soluble granule (SG) formulation having an active ingredient concentration of 20%.
(§7) Bispyribac-sodium (herbicide B.23) was used as a soluble concentrate (SL) formulation having an active ingredient concentration of 408 g/l.
(§8) Quizalofop-P-ethyl (herbicide B.217) was used as a suspension concentrate (SC) formulation having an active ingredient concentration of 106 g/l.
(§9) In the following experiments, the herbicidal activity for the individual herbicide compounds (solo and mixture applications) was assessed 20 days after treatment (DAT).
(§10) The evaluation for the damage on undesired weeds caused by the chemical compositions was carried out using a scale from 0 to 100%, compared to the untreated control plants. Here, 0 means no damage and 100 means complete destruction of the plants.
(§11) The plants used in the greenhouse experiments belonged to the following species:
(§12) E=X+Y−(X·Y/100) • where X=effect in percent using herbicide A at an application rate a; • Y=effect in percent using herbicide B at application rate b; • E=expected effect (in %) of herbicide A+herbicide B at application rates a+b.
(§13) The value E corresponds to the effect (plant damage or injury) which is to be expected if the activity of the individual compounds is additive. If the observed effect is higher than the value E calculated according to the Colby equation, a synergistic effect is present.
(§14) Tables 3 to 6 below relate the herbicidal activity, in greenhouse trials, of the individual actives and the combination applied at different rates and ratios, in post-emergence application at 20 days after treatment (DAT).

[2] = test system: ALOMY; experiment: as above; assay type: in vivo, Alopecurus myosuroides
Experimental: as §1, §2, §3, §4, §5, §6, §7, §8, §9, §10, §11, §12, §13, §14

[3] = test system: BRSNW; experiment: as above; assay type: in vivo, Brassica napus
Experimental: as §1, §2, §3, §4, §5, §6, §7, §8, §9, §10, §11, §12, §13, §14

[4] = test system: ryegrass (LOLMU) biotypes; experiment: Greenhouse test, control of resistant weed biotypes, post-emergence, ryegrass; assay type: in vivo, Lolium multiflorum; settings: for Herbicidal activity: post-emergence, scale 0 to 100
Experimental: (§15) The herbicidal activity of herbicide A on resistant weed biotypes was tested in comparison with certain commercial herbicides by the following greenhouse experiments:
(§16) The culture containers used were plastic flowerpots containing loamy sand with approximately 3.0% of humus as the substrate. The seeds of the test plants were sown separately for each species. Six blackgrass (ALOMY) (10-103, 10-170, 09-591, 10-123, 11-215, 11-146) and six ryeg rass (LOLMU) (12-166, 12-143, 12-165, 12-307, 13-304, 13-313) biotypes with varying degrees of resistance towards a range of modes of action according to the HRAC (Herbicide Resistance Action Committee) classification on mode of action 2010 (see e.g http://www.hracglobal.com/pages/classificationofherbicidesiteofaction.aspx) were tested alongside two non-resistant biotypes (14-116 and 13-243), see Tables 1 and 2 below.
(§17) For the post-emergence treatment, the test plants were first grown to a height of 3 to 15 cm, depending on the plant habit, and only then treated with the active ingredients which had been suspended or emulsified in water. For this purpose, the test plants were either sown directly and grown in the same containers, or they were first grown separately as seedlings and transplanted into the test containers a few days prior to treatment.
(§18) Depending on the species, the plants were kept at 10-25° C. or 20-35° C. The test period extended over 2 to 4 weeks. During this time, the plants were tended, and their response to the individual treatments was evaluated.
(§19) The racemic mixture (±)-2-exo-(2-Methylbenzyloxy)-1-methyl-4-isopropyl-7-oxabicyclo[2.2.1]heptane was used as herbicide A and formulated as emulsifiable concentrates with an active ingredient concentration of 50 g/l, 100 g/l or 750 g/l respectively.
(§20) Flufenacet was used as a commercial concentrated solution formulation having an active ingredient concentration of 500 g/l (Cadou).
(§21) Imazamox was used as a water dispersible granule (70% WG).
(§22) Evaluation of the herbicidal activity was carried out using a scale from 0 to 100. 100 means complete destruction of at least the aerial moieties, and 0 means no damage, or normal course of growth. A good herbicidal activity is given at values of at least 70 and a very good herbicidal activity is given at values of at least 85.

[5] = test system: MATIN; experiment: Greenhouse test, solo and combination, post-emergence, 20 DAT; assay type: in vivo, Matricaria inodora
Experimental: as §1, §2, §3, §4, §5, §6, §7, §8, §9, §10, §11, §12, §13, §14

[6] = test system: LOLRI; experiment: as above; assay type: in vivo, Lolium rigidum
Experimental: as §1, §2, §3, §4, §5, §6, §7, §8, §9, §10, §11, §12, §13, §14

[7] = test system: blackgrass (ALOMY) biotypes; experiment: Greenhouse test, control of resistant weed biotypes, post-emergence, blackgrass; assay type: in vivo, Alopecurus myosuroides; settings: for Herbicidal activity: post-emergence, scale 0 to 100
Experimental: as §15, §16, §17, §18, §19, §20, §21, §22

Which results are given for “(±)-2-exo-(2-Methylbenzyloxy)-1-methyl-4-isopropyl-7-oxabicyclo[2.2.1]heptane [Herbicide A]”?
Herbicidal activity ([1]; solo application 62.5 g ai/ha): 0%; Herbicidal activity ([1]; solo application 125 g ai/ha): 0%; Herbicidal activity ([1]; solo application 250 g ai/ha): 15%; Herbicidal activity ([1]; solo application 500 g ai/ha): 25%; Herbicidal activity ([2]; solo application 62.5 g ai/ha): 30%; Herbicidal activity ([2]; solo application 125 g ai/ha): 55%; Herbicidal activity ([2]; solo application 250 g ai/ha): 70%; Herbicidal activity ([2]; solo application 500 g ai/ha): 80%; Herbicidal activity ([3]; solo application 62.5 g ai/ha): 0%; Herbicidal activity ([3]; solo application 125 g ai/ha): 0%; Herbicidal activity ([3]; solo application 500 g ai/ha): 0%; Herbicidal activity ([4]; BT 12-143, resistant HRAC group A, B, C, E, K, 125 g ai/ha): 80; Herbicidal activity ([4]; BT 12-143, resistant HRAC group A, B, C, E, K, 250 g ai/ha): 95; Herbicidal activity ([4]; BT 12-165, resistant HRAC group A, B, E, K, 125 g ai/ha): 95; Herbicidal activity ([4]; BT 12-165, resistant HRAC group A, B, E, K, 250 g ai/ha): 100; Herbicidal activity ([4]; BT 12-166, resistant HRAC group A, B, E, K, 125 g ai/ha): 90; Herbicidal activity ([4]; BT 12-166, resistant HRAC group A, B, E, K, 250 g ai/ha): 90; Herbicidal activity ([4]; BT 12-307, resistant HRAC group B, F, K, O, 125 g ai/ha): 70; Herbicidal activity ([4]; BT 12-307, resistant HRAC group B, F, K, O, 250 g ai/ha): 90; Herbicidal activity ([4]; BT 13-243, Sensitive standard, 125 g ai/ha): 75; Herbicidal activity ([4]; BT 13-243, Sensitive standard, 250 g ai/ha): 90; Herbicidal activity ([4]; BT 13-304, resistant HRAC group A, B, E, K, 125 g ai/ha): 85; Herbicidal activity ([4]; BT 13-304, resistant HRAC group A, B, E, K, 250 g ai/ha): 95; Herbicidal activity ([4]; BT 13-313, resistant HRAC group A, B, C, E, K, 125 g ai/ha): 70; Herbicidal activity ([4]; BT 13-313, resistant HRAC group A, B, C, E, K, 250 g ai/ha): 95; herbicidal activity (summary in words) ([4]; post-emergence treatment, various biotypes of ryegrass (LOLMU) with varying degrees of resistance): very good herbicidal activity (a very good herbicidal activity is given at values of at least 85); Herbicidal activity ([5]; solo application 62.5 g ai/ha): 0%; Herbicidal activity ([5]; solo application 125 g ai/ha): 0%; Herbicidal activity ([5]; solo application 250 g ai/ha): 0%; Herbicidal activity ([5]; solo application 500 g ai/ha): 25%; Herbicidal activity ([6]; solo application 62.5 g ai/ha): 15%; Herbicidal activity ([6]; solo application 125 g ai/ha): 30%; Herbicidal activity ([6]; solo application 250 g ai/ha): 50%; Herbicidal activity ([7]; BT 09-591, resistant HRAC group A, B, K, 125 g ai/ha): 80; Herbicidal activity ([7]; BT 09-591, resistant HRAC group A, B, K, 250 g ai/ha): 95; Herbicidal activity ([7]; BT 10-103, resistant HRAC group A, B, K, 125 g ai/ha): 80; Herbicidal activity ([7]; BT 10-103, resistant HRAC group A, B, K, 250 g ai/ha): 95; Herbicidal activity ([7]; BT 10-123, resistant HRAC group A, B, C, 125 g ai/ha): 85; Herbicidal activity ([7]; BT 10-123, resistant HRAC group A, B, C, 250 g ai/ha): 90; Herbicidal activity ([7]; BT 10-170, resistant HRAC group A, B, K, 125 g ai/ha): 85; Herbicidal activity ([7]; BT 10-170, resistant HRAC group A, B, K, 250 g ai/ha): 90; Herbicidal activity ([7]; BT 11-146, resistant HRAC group K, 125 g ai/ha): 90; Herbicidal activity ([7]; BT 11-146, resistant HRAC group K, 250 g ai/ha): 95; Herbicidal activity ([7]; BT 11-215, resistant HRAC group A, B, C, E, K, 125 g ai/ha): 80; Herbicidal activity ([7]; BT 11-215, resistant HRAC group A, B, C, E, K, 250 g ai/ha): 95; Herbicidal activity ([7]; BT 14-116, Sensitive standard, 125 g ai/ha): 65; Herbicidal activity ([7]; BT 14-116, Sensitive standard, 250 g ai/ha): 100; herbicidal activity (summary in words) ([7]; post-emergence treatment, various biotypes of blackgrass (ALOMY) with varying degrees of resistance): very good herbicidal activity (a very good herbicidal activity is given at values of at least 85)
